Values joined by “and” are separate entries in the source; they are usually repeats but may differ in a detail not shown here. Equal values may be shown once. Where a SMILES comes first, the peptide text is derived from it. [ ]: non-standard residue; d: D form. The star is where a group is joined. Nle = CCCC[C@H](N)C(=O)O; Hexanoyl = CCCCCC(=O)*; Ahx = NCCCCCC(=O)O
What was measured:
CA1 hippocampal neurons = assay: Spinogenesis in organotypic hippocampal slice cultures; type: cell-based, rat
Protocol: (§1) Hippocampi from P4 Sprague Dawley rats were cultured as previously described (Wayman, Impey et al. 2006). Briefly, 400 μm slices were cultured on (Milipore, Billerica, Mass.) for 3 days after which they were biolistically transfected with tomato fluorescent protein (TIT) using a Helios Gen Gun (BioRad, Hercules, Calif.), according to the manufacturer's protocol, to visualize dendritic arbors. Following a 24 hour recovery period slices were stimulated with vehicle (H2O), […] Nle1-AngIV or Dihexa for 2 days. Slices were fixed and mounted. Hippocampal CA1 neuronal processes were imaged and measured as described above.
as §1, with “(TFP)” for “(TIT)”, “Gene” for “Gen”, “with” for “with vehicle (H2O),”

[1] = test system: hippocampal neurons transfected with shMet; assay: Spinogenesis after c-Met knock-down with shRNA; type: cell-based, rat; conditions: HGF 10 ng/ml, 48 hours
From the text: Neurons were transfected with mRFP-β-actin on day in vitro 6 (DIV6) using LipofectAMINE™ 2000 (Invitrogen) according to the manufacturer's protocol. This protocol yielded the desired 3-5% transfection efficiency thus enabling the visualization of individual neurons. Higher efficiencies obscured the dendritic arbor of individual neurons. Expression of fluorescently tagged actin allowed clear visualization of dendritic spines, as dendritic spines are enriched in actin. On DIV7 the cells were treated with vehicle (H20) or peptides (as described in the text) added to media. On DIV12 the neurons were fixed (4% paraformaldehyde, 3% sucrose, 60 mM PIPES, 25 mM HEPES, 5 mM EGTA, 1 mM MgCl2, pH 7.4) for 20 min at room temperature and mounted. Slides were dried for at least 20 hours at 4° C. and fluorescent images were obtained with Slidebook 4.2 Digital Microscopy Software driving an Olympus IX81 inverted confocal microscope with a 60× oil immersion lens, NA 1.4 and resolution 0.280 μm Dendritic spine density was measured on primary and secondary dendrites at a distance of at least 150 μm from the soma. Five 50 μm long segments of dendrite from at least 10 neurons per data point were analyzed for each data point reported. Each experiment was repeated at least three times using independent culture preparations. Dendrite length was determined using the National Institutes of Health's Image J 1.41o program (NIH, Bethesda, Md.) and the neurite tracing program Neuron J (Meijering, Jacob et al. 2004) Spines were manually counted.
A target sequence for c-Met was designed using RNAi central design program (see the website located at cancan.cshl.edu/). […]. The shRNA was transfected into cells using the lipofectamine method described above. Verification of receptor knockdown was done by creating a c-Met-6-Myc tagged gene product using the Gateway cloning system (Invitrogen). The Met protein coding sequence was cloned from rat whole brain cDNA using primers obtained from Integrated DNA Technologies, Inc. The amplified product was gel purified and a band corresponding to […] band excised and cloned into a PCAGGS-6-Myc destination vector (Gateway).
To irrefutably confirm that the AngIV analogues act via the HGF/c-met system an shRNA for c-Met was employed to knock-down the receptor. Dissociated hippocampal neurons were transfected with mRFP-β-actin and shMet RNA and receptor knock-down was allowed to take place for 48 hours prior to stimulating with 0.5 μg (per well) HGF (10 ng/ml), Dihexa or Nle1-AngIV (both at 10^−12M). Longer exposure appeared to be detrimental or toxic to the neurons. Effective c-Met receptor knock-down was verified by transfecting human embryonic kidney (HEK) cells with (0.1 μg) 6-Myc-tagged c-Met, (0.1 μg) shMet or mRFP-β-actin alone. Successful knockdown was confirmed by immunoblotting for Myc tagged c-met using an anti-Myc antibody (FIG. 19).

[2] = neurons transfected with mRFP-β-actin alone, Dihexa or Nle1-AngIV 10^−12M
[3] = neurons transfected with mRFP-β-actin and shMet, Dihexa or Nle1-AngIV 10^−12 M

Compound	Spines per 50 μm dendrite length, CA1 neurons (CA1 hippocampal neurons; 10^−12 M, 2 days)	Mean spine numbers per 50 μm dendrite length [1, 2]	Mean spine numbers per 50 μm dendrite length [1, 3]	Spines per 50 μm dendrite length, CA1 neurons (CA1 hippocampal neurons; HGF 10 ng/ml, 48 hours)
CCCCCC(=O)N[C@@H](Cc1ccc(O)cc1)C(=O)N[C@H](C(=O)NCCCCCC(N)=O)[C@@H](C)CC [Dihexa, N-hexanoic-Tyr-Ile-(6)-aminohexanoic amide] (Hexanoyl-Tyr-Ile-[Ahx]-NH2)	11 spines per 50 μm dendrite length and 15.0 spines per 50 μm dendrite length	21.8 spines per 50 μm dendrite leng	12.0 spines per 50 μm dendrite leng	–
CCCC[C@H](N)C(=O)N[C@@H](Cc1ccc(O)cc1)C(=O)N[C@H](C(=O)N[C@@H](Cc1c[nH]cn1)C(=O)N1CCC[C@H]1C(=O)N[C@@H](Cc1ccccc1)C(=O)O)[C@@H](C)CC [Nle1-AngIV, reference compound] (H-[Nle]YIHPF-OH; N-terminus and C-terminus assumed)	11 spines per 50 μm dendrite length	20.0 spines per 50 μm dendrite leng	12.1 spines per 50 μm dendrite leng	–
HGF: Hepatocyte growth factor, recombinant, purchased from R&D Systems	–	20.6 spines per 50 μm dendrite leng	12.4 spines per 50 μm dendrite leng	18.5 spines per 50 μm dendrite length
